Data as given in patent US6787327B2, “Methods for determining tyrosine-DNA phosphodiesterase activity” (Kelk Graduate of Applied Life Sciences, priority 2001, dated 2004).

Target: HTDPNΔ1-39 (recombinant human TDP) (Homo sapiens, UniProt Q9NUW8)
Details: manganese chloride 5 mM or 10 mM; 5 mM substrate, 5 μg protein; absorbance at 415 nm; FIG. 7
Text: In these assays, a chromogenic enzymatic assay system is used. In these systems, a substrate of smaller molecular weight (i.e., as compared with other substrates) containing one single base of thymidine, with chromogenic para-nitrophenyl group attached to the 3′-hydroxy group of deoxyribose was chosen. This compound mimics the aromatic groups of tyrosine in topo I-DNA complexes.
Upon the cleavage of the phosphodiester bond by TDP, the p-nitrophenol group mimicking the tyrosine residue in topo I-DNA complexes is released. The concentration of this group (i.e., a chromogen) is determined using spectroscopy. Thus, in this Example, enzymatic reactions contained 100 mM Tris HCl, pH 8.5, 100 mM NaCl, 1 mM DTT, 5 mM para-nitrophenyl thymidine-3′-phosphate and 5 μg of purified protein in a volume of 200 μl. For these reactions, 96-well plates were used. The amount of cleaved product (p-nitrophenol) was assessed by determining its absorbance at 415 nm (Ultramark Microplate Imaging System, BioRad).
During the development of this assay system, it was determined that the system may be optimized by the inclusion of manganese cation in the assay. […] Upon incubation of various TDP mutants and the substrate (para-nitrophenyl-thymidine-3′-phosphate) in the presence of manganese cations, the concentrations of the resulting para-nitrophenynol were calculated based on the optical density measured at 415 nm. […]

Sequence of HTDPNΔ1-39 (recombinant human TDP) (Q9NUW8 40-608, stated change not applied): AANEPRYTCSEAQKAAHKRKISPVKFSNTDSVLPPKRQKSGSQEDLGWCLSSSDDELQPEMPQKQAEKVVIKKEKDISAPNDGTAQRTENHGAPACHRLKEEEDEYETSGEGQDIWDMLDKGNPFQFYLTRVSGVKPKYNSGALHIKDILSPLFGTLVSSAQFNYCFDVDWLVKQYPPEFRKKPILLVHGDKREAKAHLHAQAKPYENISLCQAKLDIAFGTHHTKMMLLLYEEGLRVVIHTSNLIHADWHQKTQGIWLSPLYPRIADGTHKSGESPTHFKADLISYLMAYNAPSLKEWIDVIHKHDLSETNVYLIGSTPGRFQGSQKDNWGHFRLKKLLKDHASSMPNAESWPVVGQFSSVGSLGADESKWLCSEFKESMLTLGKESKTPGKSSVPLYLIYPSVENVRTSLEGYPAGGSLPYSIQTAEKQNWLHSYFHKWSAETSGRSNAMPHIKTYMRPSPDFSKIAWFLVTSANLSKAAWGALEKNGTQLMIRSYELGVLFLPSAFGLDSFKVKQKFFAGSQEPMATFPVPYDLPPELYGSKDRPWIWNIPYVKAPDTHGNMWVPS

In the case of manganese chloride, the “increase of enzymatic activity on para-nitrophenyl thymidine-3′-phosphate, as compared to the activity in the presence of magnesium” value is reported as 7 fold and the “increase of enzymatic activity on para-nitrophenyl thymidine-3′-phosphate, as compared with the activity in the absence of cations” value is reported as 17 fold.
